According to the supplement of paper PMC10307832:

Key:
[1] = compound: CC(C)C[C@@H](C(=O)N[C@H](C(=O)OC1CCCC1)c1ccccc1)[C@H](O)C(=O)NO [Tosedostat] + CC(=O)Nc1cccc(-n2c(=O)n(C3CC3)c(=O)c3c(Nc4ccc(I)cc4F)n(C)c(=O)c(C)c32)c1 [Trametinib] (partner 0.02 µM); assay: relative viability (nuclei count vs DMSO), 5 days (fraction); higher = more cells survive
Procedure, shortened: (§1)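 Medians of duplicate plates are given as relative viability. That measure is the nuclei count in treated wells divided by the count in vehicle wells. Counts were taken on 4× images of lung cancer cell lines in 1536-well plates, 5 days after pin-tool dosing the day after seeding with one drug alone or a fixed anchor-drug dose plus five library-drug doses (not always all listed) in √10 steps.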

[2] = compound: CC1=NN=C(O1)C2=NN=C(C=C2)N3CCC(CC3)OC4=C(C=CC(=C4)F)Cl + Cc1nc(Nc2ncc(C(=O)Nc3c(C)cccc3Cl)s2)cc(N2CCN(CCO)CC2)n1 [Dasatinib] (partner 0.075 µM); assay: as above
Procedure, shortened: as §1

Cell Line | relative viability ([1]; first compound 0.02 µM) | relative viability ([1]; first compound 0.06325 µM) | relative viability ([1]; first compound 0.2 µM) | relative viability ([1]; first compound 0.6325 µM) | relative viability ([1]; first compound 2 µM) | relative viability ([2]; first compound 0.253 µM) | relative viability ([2]; first compound 0.8 µM) | relative viability ([2]; first compound 2.53 µM) | relative viability ([2]; first compound 8 µM)
HCC-44 | 1.21 | 1.11 | 1.09 | 1.13 | 1.17 |  |  |  | 
HCC-827 | 0.545 | 0.571 | 0.552 | 0.505 | 0.518 | 0.374 | 0.235 | 0.357 | 0.256
NCI-H1623 |  |  |  |  |  | 0.522 | 0.492 | 0.498 | 0.441
NCI-H441 | 0.478 | 0.579 | 0.499 | 0.562 | 0.461 | 0.566 | 0.492 | 0.664 | 0.493
NCI-H1734 | 0.778 | 0.666 | 0.664 | 0.502 | 0.572 | 0.496 | 0.417 | 0.477 | 0.401
HARA | 0.85 | 0.636 | 0.91 | 0.745 | 0.631 | 0.271 | 0.248 | 0.247 | 0.235
NCI-H1395 | 0.968 | 1.07 | 1.12 | 1.05 | 1.06 | 0.448 | 0.405 | 0.401 | 0.427
NCI-H1355 | 0.344 | 0.388 | 0.44 | 0.386 | 0.406 | 0.314 | 0.526 | 0.781 | 0.585
LXF-289 | 0.744 | 0.651 | 0.661 | 0.703 | 0.687 | 0.209 | 0.234 | 0.195 | 0.227
NCI-H1563 |  |  |  |  |  | 0.465 | 0.48 | 0.55 | 0.452
HCC-78 | 0.729 | 0.722 | 0.664 | 0.795 | 0.659 | 0.413 | 0.302 | 0.341 | 0.244
NCI-H1666 | 0.962 | 0.856 | 0.929 | 0.91 | 0.851 | 0.612 | 0.526 | 0.58 | 0.543
HCC-15 | 0.394 | 0.353 | 0.408 | 0.363 | 0.305 | 0.497 | 0.453 | 0.499 | 0.472
EKVX | 0.229 | 0.338 | 0.433 | 0.373 | 0.292 | 0.513 | 0.464 | 0.436 | 0.532
NCI-H2347 | 0.297 | 0.295 | 0.33 | 0.262 | 0.321 |  | 0.343 | 0.33 | 0.277
LK-2 | 0.903 | 0.819 | 0.614 | 0.628 | 0.78 | 0.393 | 0.458 | 0.504 | 0.428
NCI-H1651 | 0.777 | 0.789 | 0.897 | 0.869 | 0.742 | 0.406 | 0.394 | 0.335 | 0.374
COR-L23 | 0.698 | 0.594 | 0.587 | 0.491 | 0.508 | 0.438 | 0.375 | 0.39 | 0.343
ABC-1 |  |  |  |  |  | 0.457 | 0.32 | 0.318 | 0.361

Cell Line | relative viability ([1]; first compound 0.02 µM) | relative viability ([1]; first compound 0.06325 µM) | relative viability ([1]; first compound 0.2 µM) | relative viability ([1]; first compound 0.6325 µM) | relative viability ([1]; first compound 2 µM) | relative viability ([2]; first compound 0.253 µM) | relative viability ([2]; first compound 0.8 µM) | relative viability ([2]; first compound 2.53 µM) | relative viability ([2]; first compound 8 µM)
SW 900 | 0.696 | 0.754 | 0.777 | 0.639 | 0.609 |  |  | 0.642 | 0.542
SW 1573 | 0.59 | 0.537 | 0.553 | 0.472 | 0.505 | 0.452 | 0.535 | 0.459 | 0.315
NCI-H1648 | 0.417 | 0.447 | 0.476 | 0.477 | 0.336 |  |  |  | 
A-427 | 0.789 | 0.748 | 0.818 | 0.719 | 0.701 | 0.654 |  | 0.669 | 0.63
NCI-H2009 | 0.248 | 0.325 | 0.321 | 0.293 | 0.276 | 0.309 | 0.289 | 0.307 | 0.327
LCLC-97TM1 | 0.19 | 0.202 | 0.232 | 0.177 | 0.161 | 0.395 | 0.324 | 0.345 | 0.347
NCI-H1792 | 0.4 | 0.417 | 0.4 | 0.42 | 0.479 | 0.578 | 0.714 | 0.78 | 0.707
LCLC-103H | 0.678 | 0.682 | 0.713 | 0.721 | 0.779 | 0.401 | 0.392 | 0.449 | 0.427
LOU-NH91 | 0.787 | 0.803 | 0.824 | 0.766 | 0.777 | 0.473 | 0.517 | 0.512 | 0.509
BEN | 1.17 | 1 | 1.09 | 1.21 | 1.38 | 0.375 | 0.508 | 0.321 | 0.24
NCI-H1755 | 0.782 | 0.837 | 0.813 | 0.869 | 0.744 | 0.36 | 0.438 | 0.406 | 0.373
LC-2-ad | 0.971 | 0.893 | 0.885 | 0.917 | 0.967 | 0.4 | 0.389 | 0.48 | 0.505
NCI-H1975 | 0.35 | 0.401 | 0.453 | 0.359 | 0.344 |  | 0.361 | 0.581 | 0.546
ChaGo-K-1 | 0.903 | 0.862 | 0.895 | 0.867 | 0.645 | 0.604 | 0.531 | 0.654 | 0.352
COR-L 105 | 0.493 | 0.431 | 0.422 | 0.476 | 0.369 | 0.329 | 0.346 | 0.413 | 0.489
NCI-H2085 |  | 0.436 | 0.677 | 0.403 | 0.637 | 0.303 | 0.234 | 0.255 | 0.227
NCI-H2087 | 0.181 | 0.17 | 0.172 | 0.228 | 0.132 | 0.597 | 0.458 | 0.581 | 0.515
NCI-H1650 | 0.79 | 0.627 | 0.552 | 0.533 | 0.479 |  | 0.342 | 0.335 | 0.28
NCI-H322M | 0.548 | 0.501 | 0.452 | 0.456 | 0.467 | 0.255 | 0.315 | 0.268 | 0.29
